The text below walks through data of the SangsterLogP compilation.

The nature of the first series: method code SF-AS, from Novello, F.; Sprague, M. (1967). Structure-activity relations among the thiazole diuretics. Ind. Chim. Belge, 32(Spec.No.), 222-225. The settings on record: pH 6.4.
Turning to `NS(=O)(=O)c1cc2c(cc1Cl)NC(CSCc1ccccc1)NS2(=O)=O` (stereo not drawn), the logD (as a rule, the decadic logarithm of the distribution of all forms, ionised or not, between an organic phase and buffer at a given pH) worked out at 1.11.

Still in this series, the particulars now being: pH 6.5.
`NS(=O)(=O)c1cc2c(cc1Cl)NC(CCl)NS2(=O)=O` (stereo not drawn): the logD came to 0.11.

In turn, `CC1CCC2(CC1)Nc1cc(Cl)c(S(N)(=O)=O)cc1S(=O)(=O)N2` (stereo not drawn) had a logD of 0.85.

With `NS(=O)(=O)c1cc2c(cc1Cl)NC(CC1CCCC1)NS2(=O)=O` (stereo not drawn), the logD came out at 1.27. The same measure, in the same setting: for `NS(=O)(=O)c1cc2c(cc1C(F)(F)C(F)(F)F)N=CNS2(=O)=O` the value was 1.05; for `NS(=O)(=O)c1cc2c(cc1[N+](=O)[O-])N=CNS2(=O)=O`, 0.08; for `CC1CCC2(CC1)Nc1ccc(S(N)(=O)=O)cc1S(=O)(=O)N2` (stereo not drawn), 1.56. In turn, `NS(=O)(=O)c1cc2c(cc1Cl)NC(C1CC3C=CC1C3)NS2(=O)=O` (stereo not drawn) returned a logD of 1.8. `CCC1Nc2cc(Cl)c(S(N)(=O)=O)cc2S(=O)(=O)N1` (stereo not drawn): the logD worked out at 0.3. `NS(=O)(=O)c1ccc2c(c1)S(=O)(=O)NC(C(Cl)Cl)N2` (stereo not drawn) returned a logD of 0.46. The logD values of the last two compounds are within 0.2 log units of each other.

The compound `NS(=O)(=O)c1ccc2c(c1)S(=O)(=O)NC=N2` registered a logD of -0.62.

Turning to `CC1Nc2cc(Cl)c(S(N)(=O)=O)cc2S(=O)(=O)N1` (stereo not drawn), the logD is 0.08. The compound `NS(=O)(=O)c1cc2c(cc1C(F)(F)F)N=CNS2(=O)=O` displayed a logD of 0.32. Still for that read-out and setting: to `CC1=Nc2cc(Cl)c(S(N)(=O)=O)cc2S(=O)(=O)N1` belongs 0.03; to `NS(=O)(=O)c1cc2c(cc1Cl)NC1(CCCCC1)NS2(=O)=O`, 1.

In turn, `NS(=O)(=O)c1cc2c(cc1Cl)NC(Cc1ccccc1)NS2(=O)=O` (stereo not drawn) displayed a logD of 0.93.

`NS(=O)(=O)c1ccc2c(c1)S(=O)(=O)NCN2`: the logD was -0.52. `NS(=O)(=O)c1cc2c(cc1Br)N=CNS2(=O)=O`: the logD is 0. Turning to `NS(=O)(=O)c1cc2c(cc1Cl)N=C(Cc1ccccc1)NS2(=O)=O`, the logD came out at 1.56. Same read-out and setting: for `CCCC1=Nc2cc(Cl)c(S(N)(=O)=O)cc2S(=O)(=O)N1` the value was 1.15; for `Cc1cc2c(cc1S(N)(=O)=O)S(=O)(=O)NCN2`, -0.22; for `NS(=O)(=O)c1cc2c(cc1Cl)NC(C(Cl)(Cl)Cl)NS2(=O)=O` (stereo not drawn), 0.82. As for `Cc1cc2c(cc1S(N)(=O)=O)S(=O)(=O)N=CN2`, the logD was -0.32. Turning to `NS(=O)(=O)c1cc2c(cc1Cl)N=C(c1ccccc1)NS2(=O)=O`, the logD was found to be 1.1.

`CC(C)(C)C1Nc2cc(Cl)c(S(N)(=O)=O)cc2S(=O)(=O)N1` (stereo not drawn) returned a logD of 0.36.

On to `NS(=O)(=O)c1cc2c(cc1F)N=CNS2(=O)=O`, for which the logD was -0.29. Compound `NS(=O)(=O)c1cc2c(cc1Br)NCNS2(=O)=O` yielded a logD of 0.08.

In turn, `CC1(C)Nc2cc(Cl)c(S(N)(=O)=O)cc2S(=O)(=O)N1` returned a logD of 0.15.

Compound `NS(=O)(=O)c1ccc2c(c1)S(=O)(=O)NC(CC1CCCC1)N2` (stereo not drawn) came in with a logD of 1.24.

On to `NS(=O)(=O)c1cc2c(cc1[N+](=O)[O-])NCNS2(=O)=O`, for which the log distribution coefficient (logD) is 0.2.

Compound `NS(=O)(=O)c1cc2c(cc1Cl)NC(C(F)(F)F)NS2(=O)=O` (stereo not drawn) displayed a logD of 0.49. `NS(=O)(=O)c1ccc2c(c1)S(=O)(=O)NC(Cc1ccccc1)N2` (stereo not drawn) returned a logD of 1.03. `CCCCCC1=NS(=O)(=O)c2cc(S(N)(=O)=O)c(Cl)cc2N1` gave a logD of 2.01.
